Source: patent US10376480B2, “Biguanide derivative, a preparation method thereof, and a pharmaceutical composition containing the biguanide derivative as an active ingredient” (Immunomet Therapeutics Inc., priority 2010, dated 2019)
Structures can show the parent of a compound that is named as a salt.

Experiments:
[1] = system: HCT116 cells; assay: Inhibition of cancer cell proliferation (MTT, GIC50); format: cell-based; conditions: Homo sapiens, HCT-116, 48 hours incubation
Method: HCT116 cells derived from human colorectal cancer were used, and an effect of a biguanide derivative on the inhibition of cancer cell proliferation was confirmed by measuring a concentration value (cell growth inhibition concentration, GIC50) at which 50% of the cell growth was inhibited using a 3-(4,5-dimethylthiazol-2-yl)-2,5-diphenytetrazolium bromide (MTT) reagent.
First, HCT116 cells were put on a 96-well plate and cultured in a DMEM medium containing 10% bovine serum for 24 hours to each have cell count of approximately 5000. Subsequently, to obtain the GIC50 value of each compound, 100 μM (or 200 μM), 25 μM, 6.25 μM, 1.56 μM or 0.39 μM of the compound was treated to each culture medium and then incubated for 48 hours. To confirm living cells after treatment with the compound, MTT was added to each culture medium and further incubated for 3 hours. Generated formazane crystal was dissolved using dimethyl sulfoxide (DMSO) and absorbance of the solution was measured at 560 nm. After the 48-hour incubation, a ratio of a cell count cultured on a well plate not treated with the compound to a cell count on a well plate treated with compounds synthesized in the examples was indicated as cell viability (%) according to each administered concentration. A cell viability curve was plotted using the cell viability (%), and the calculated concentration value (GIC50) of the compound, at which 50% of the growth was inhibited was, to confirm an effect on the inhibition of cancer cell proliferation.

[2] = system: 5′-AMP-activated protein kinase (AMPK); assay: AMPK activation (AMPKα Thr172 phosphorylation immunoassay) in MCF7 cells; format: cell-based, human; conditions: for AMPK Activation (phosphorylated AMPKα Thr172) / fold induction at 50 µM: MCF7 cells; for AMPK Activation (phosphorylated AMPKα Thr172): 24 hours; for fold induction at 50 µM: 24 h, 50 μM vs. 0 (cells without compound)
Method: MCF7 cells derived from human breast cancer cells were used, and an effect of a biguanide derivative on 5′-AMP-activated protein kinase (AMPK) activation was confirmed using an AMPKα immunoassay kit (Invitrogen, catalog No. KHO0651).
The MCF7 cells were put on a 6-well plate and incubated in a DMEM medium containing 10% fetal bovine serum in an incubator to which 5% CO2 was supplied to have a cell count of approximately 5×10^5. 50 μM of derivatives synthesized in the examples were treated to the each culture medium, and the cells were incubated for 24 hours. Subsequently, the cells were lysed by a method presented in the operation manual of the AMPKα immunoassay kit, and 20 μg of cell lysates were yielded through protein assay. A degree of phosphorylation of an AMPKα threonine 172nd residue (Thr172) from the cell lysates were confirmed according to a method presented in the operation manual of the AMPKα immunoassay kit to thereby obtain results.
In addition, an experiment was performed in the same manner as described in Experimental Example 2 using metformin as a control group, and the results of an effect on AMPK activation were compared to the effect on AMPK activation when 1 mM metformin was treated.

Row | IC50 [1] [µM] | melting point [°C] | SMILES | AMPK Activation (phosphorylated AMPKα Thr172) ([2]; 50 μM compound) | fold induction at 50 µM ([2]; Homo sapiens) | AMPK Activation (phosphorylated AMPKα Thr172) ([2]; 1 mM metformin) | fold induction at 1000 µM ([2]; Homo sapiens, MCF7, 24 h, read-out: AMPK Activation fold)
1 | 36 | 110 to 111 | CCCN(CCC)C(=N)NC(=N)N(C)CCc1ccccc1.Cl [Example 38, N1,N1-dipropyl-N5,N5-(methyl)(phenethyl) Biguanide Hydrochloride] | 35.8 | 6.8 | – | –
2 | 7.6 | 201 to 202 | CCCN(CCC)C(=N)NC(=N)Nc1cccc(Cl)c1.Cl [Example 31, N1,N1-dipropyl-N5-(3-chloro)phenyl Biguanide Hydrochloride] | – | – | – | –
3 | > 200 | 110 to 112 | CCCN(CC)C(=N)NC(=N)Nc1ccc(Cl)cc1.Cl [Example 32, N1,N1-(ethyl)(propyl)-N5-(4-chloro)phenyl Biguanide Hydrochloride] | 5.2 | 1 | – | –
4 | > 200 | 117 to 118 | CN(C)C(=N)NC(=N)NCC1CC1.Cl [Example 24, N1,N1-dimethyl-N5-cyclopropylmethyl Biguanide Hydrochloride] | 5.1 | 1 | – | –
5 | 47 | 143 to 146 | Cl.N=C(NCCc1ccccc1)NC(=N)NCC1CC1 [Example 14, N1-(phenethyl)-N5-cyclopropylmethyl Biguanide Hydrochloride] | 31.2 | 5.9 | – | –
6 | > 100 | 272 to 273 | CN(C)C(=N)NC(=N)Nc1ccc(Br)cc1.Cl [Example 25, N1,N1-dimethyl-N5-(4-bromo)phenyl Biguanide Hydrochloride] | 23.1 | 4.4 | – | –
7 | > 200 | 140 to 141 | CCN(CC)C(=N)NC(=N)N(CC)CC.Cl [Example 35, N1,N1,N5,N5-tetraethyl Biguanide Hydrochloride] | 3.8 | 0.7 | – | –
8 | > 200 | 176 to 177 | CN(C)C(=N)NC(=N)NCc1ccco1.Cl [Example 26, N1,N1-dimethyl-N5-(furan-2-yl)methyl Biguanide Hydrochloride] | 8.9 | 1.7 | – | –
9 | 7.8 | – | CCCCCCN(CCCCCC)C(=N)NC(=N)Nc1cccc(Cl)c1 [Example 34, N1,N1-dihexyl-N5-(3-chloro)phenyl Biguanide Hydrochloride] | – | – | – | –
10 | > 200 | 151 to 152 | CN(C)C(=N)NC(=N)NCc1ccccc1.Cl [Example 28, N1,N1-dimethyl-N5-benzyl Biguanide Hydrochloride] | 5.9 | 1.2 | – | –
11 | > 100 | 204 to 205 | Cl.N=C(NCCc1ccccc1)NC(=N)NCCc1ccccc1 [Example 16, N1,N5-bis(phenethyl) Biguanide Hydrochloride] | 4.7 | 0.7 | – | –
12 | > 100 | 189 to 190 | CCCN(CCC)C(=N)NC(=N)N(c1ccccc1)c1ccc(O)cc1.Cl [Example 39, N1,N1-dipropyl-N5,N5-(4-hydroxylphenyl)(phenyl) Biguanide Hydrochloride] | 28.8 | 4.2 | – | –
13 | > 100 | 129 to 131 | Cl.N=C(NC(=N)Nc1cccc(Cl)c1)Nc1cccc(Cl)c1 [Example 6, N1,N5-bis(3-chlorophenyl) Biguanide Hydrochloride] | 4.6 | 0.7 | – | –
14 | 17.2 | 135 to 137 | Cl.N=C(NCCc1ccccc1)NC(=N)NC1CCCCCC1 [Example 15, N1-(phenethyl)-N5-cycloheptyl Biguanide Hydrochloride] | 7.0 | 1.5 | – | –
15 | > 200 | 131 to 133 | CCCCCNC(=N)NC(=N)N(C)C.Cl [Example 21, N1,N1-dimethyl-N5-pentyl Biguanide Hydrochloride] | 5.6 | 1.1 | – | –
16 | 18.3 | – | COc1ccc(NC(=N)NC(=N)Nc2ccc(Cl)cc2)cc1 [Example 7, N1-(4-chloro)phenyl-N5-(4-methoxy)phenyl Biguanide Hydrochloride] | – | – | – | –
17 | > 100 | 151 to 152 | CCCN(CCC)C(=N)NC(=N)N(CC)CC.Cl [Example 37, N1,N1-dipropyl-N5,N5-diethyl Biguanide Hydrochloride] | 33.3 | 6.3 | – | –
18 | > 200 | 186 to 187 | CN(C)C(=N)NC(=N)NC(C)(C)C.Cl [Example 20, N1,N1-dimethyl-N5-t-butyl Biguanide Hydrochloride] | 4.6 | 0.9 | – | –
19 | > 200 | 110 to 112 | CCC(C)NC(=N)NC(=N)N(C)C.Cl (stereo not drawn) [Example 19, N1,N1-dimethyl-N5-(butane-2-yl) Biguanide Hydrochloride] | 3.6 | 0.7 | – | –
20 | 8.4 | – | CCCCCCNC(=N)NC(=N)NCc1ccccc1.Cl [Example 4, N1-hexyl-N5-benzyl Biguanide Hydrochloride] | 15.5 | 6.2 | – | –
21 | > 200 | 175 to 177 | CNC(=N)NC(=N)N(C)C.Cl [Example 17, N1,N1,N5-trimethyl Biguanide Hydrochloride] | 5.5 | 1.1 | – | –
22 | 3.2 | 263 to 264 | Cl.N=C(NC(=N)Nc1ccc(Cl)cc1)Nc1ccc(Cl)cc1 [Example 5, N1,N5-bis(4-chlorophenyl) Biguanide Hydrochloride] | – | – | – | –
23 | 6.3 | 250 to 251 | Cl.N=C(NC(=N)Nc1cc(Cl)cc(Cl)c1)Nc1cc(Cl)cc(Cl)c1 [Example 10, N1,N5-bis(3,5-dichlorophenyl) Biguanide Hydrochloride] | – | – | – | –
24 | > 200 | 131 to 133 | CCCCNC(=N)NC(=N)N(C)C.Cl [Example 18, N1,N1-dimethyl-N5-butyl Biguanide Hydrochloride] | 4.6 | 0.9 | – | –
25 | 23.8 | – | CCCCCCNC(=N)NC(=N)NCCC.Cl [Example 1, N1-hexyl-N5-propyl Biguanide Hydrochloride] | 35.6 | 6.7 | – | –
26 | 5.9 | 255 to 257 | Cl.N=C(NC(=N)Nc1ccc(Cl)c(Cl)c1)Nc1ccc(Cl)c(Cl)c1 [Example 9, N1,N5-bis(3,4-dichlorophenyl) Biguanide Hydrochloride] | – | – | – | –
27 | > 100 | – | CCCCCCNC(=N)NC(=N)NCC1CCCCC1.Cl [Example 3, N1-hexyl-N5-cyclohexylmethyl Biguanide Hydrochloride] | 13.1 | 1.9 | – | –
28 | 2170 | – | CN(C)C(=N)N=C(N)N [Metformin HCl, reference compound] | – | – | 21.5 (@ 1 mM) | 3.2
29 | 17 | 203 to 204 | COc1ccc(NC(=N)NC(=N)Nc2ccc(OC)c(Cl)c2)cc1Cl.Cl [Example 8, N1,N5-bis(3-chloro-4-methoxyphenyl) Biguanide Hydrochloride] | – | – | – | –
30 | 3.1 | 242 to 243 | Cl.N=C(NC(=N)Nc1ccc(Br)cc1)Nc1ccc(Br)cc1 [Example 11, N1,N5-bis(4-bromophenyl) Biguanide Hydrochloride] | – | – | – | –

Row | SMILES | IC50 [1] [µM] | melting point [°C] | AMPK Activation (phosphorylated AMPKα Thr172) ([2]; 50 μM compound) | fold induction at 50 µM ([2]; Homo sapiens) | AMPK Activation (phosphorylated AMPKα Thr172) ([2]; 1 mM metformin) | fold induction at 1000 µM ([2]; Homo sapiens, MCF7, 24 h, read-out: AMPK Activation fold)
31 | CN(C)C(=N)NC(=N)NCc1cccnc1.Cl [Example 27, N1,N1-dimethyl-N5-(pyridine-3-yl)methyl Biguanide Hydrochloride] | > 200 | 112 to 114 | 4.6 | 0.9 | – | –
